Like-named read-outs stand apart in the source and are kept apart here.
Target: T1, human TREK-2 (Homo sapiens, UniProt P57789)
T1 construct: expressed in transfected cells; host or cells: Xenopus laevis oocytes injected with in vitro transcribed mRNA (pFAW vector)
T1 sequence (P57789 1-543 isoform P57789-4): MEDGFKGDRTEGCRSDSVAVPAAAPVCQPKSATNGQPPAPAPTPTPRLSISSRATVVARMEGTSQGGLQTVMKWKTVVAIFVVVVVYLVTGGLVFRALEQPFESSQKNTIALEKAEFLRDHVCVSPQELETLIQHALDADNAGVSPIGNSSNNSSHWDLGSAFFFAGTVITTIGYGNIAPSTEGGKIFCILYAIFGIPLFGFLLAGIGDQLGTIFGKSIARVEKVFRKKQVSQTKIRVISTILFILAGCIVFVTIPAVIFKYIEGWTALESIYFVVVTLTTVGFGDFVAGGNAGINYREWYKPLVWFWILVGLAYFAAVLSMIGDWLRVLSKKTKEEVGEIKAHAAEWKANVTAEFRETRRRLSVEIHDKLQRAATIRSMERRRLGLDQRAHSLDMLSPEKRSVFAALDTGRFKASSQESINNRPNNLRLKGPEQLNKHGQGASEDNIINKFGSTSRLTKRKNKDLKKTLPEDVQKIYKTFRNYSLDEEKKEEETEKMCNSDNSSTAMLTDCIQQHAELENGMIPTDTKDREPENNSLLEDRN
Assay: Macroscopic TREK-2 currents in giant excised patches from Xenopus oocytes
Assay type: cell-based
Experimental: Full-length human TREK-2 isoform 3 (NCBI accession no. NP_612191) was used throughout this study and was subcloned into the pFAW vector for expression in oocytes. The truncated construct used to generate protein (TREK-2ΔN/ΔC) is identical to that used previously to obtain crystal structures ([Dong et al., 2015]); it contains a deletion of 71 residues at the N terminus and 213 residues at the C terminus. […] Desamino chloro-fluoxetine (Toronto Research Chemicals) was dissolved in chloroform and diluted to working concentrations on the day of experimenting (maximum final concentration was 0.01%).
Oocytes were prepared for injection of mRNA by collagenase digestion followed by manual defolliculation and stored in ND96 solution that contained (in mM) 96 NaCl, 2 KCl, 1.8 CaCl2, 1 MgCl2, and 10 HEPES (pH 7.4) and was supplemented with 2.5 mM sodium pyruvate 50 µg/ml gentamycin, 50 µg/ml tetracycline, 50 µg/ml ciprofloxacin, and 100 µg/ml amikacin. Cells were injected with 1–4 ng mRNA up to 4 d after isolation. In vitro transcription of mRNA was done using the Amplicap SP6 Kit (Cambio). Experiments were performed 12–24 h after injection at room temperature (22°C unless otherwise indicated). For measurement and comparison of basal whole-cell currents, oocytes were injected with 4 ng RNA and recorded exactly 24 h after injection.
For currents recorded in Xenopus laevis oocytes, giant-patch electrodes were pulled from thick-walled borosilicate glass and polished to give pipette resistances of ∼0.3–0.5 MΩ when filled with patch solution. Pipette solution contained (in mM) 116 NMDG, 4 KCl, 1 MgCl2, 3.6 CaCl2, and 10 HEPES (pH 7.4), while the bath solution contained (in mM) 120 KCl, 1 NaCl, 2 EGTA, and 10 HEPES (pH 7.3). Patches were perfused via a gravity-flow perfusion system and a HEKA EPC 10 USB single computer–controlled amplifier was used and currents recorded using a Patchmaster v2 × 90.5 (HEKA Electronics), filtered at 1 kHz, and sampled at 10 kHz. For currents recorded in HEK293 cells, patch electrodes were pulled from thick-walled borosilicate glass and polished to give pipette resistances of ∼3–5 MΩ when filled with patch solution. The currents were recorded from excised patches with both intracellular and extracellular solution containing 200 mM KCl and 10 mM HEPES (pH 6.0 with KOH). Patches were perfused via a gravity-flow perfusion system. Data were acquired with pClamp and recorded using an Axopatch 200B (Molecular Devices), filtered at 5 kHz, and sampled at 200 kHz. Single-channel currents were analyzed in an identical manner to those obtained from bilayers (see above).
The macroscopic concentration–inhibition relationships in Figs. 1 and 2 were fitted with a modified Hill equation:
I/I0=a+1−a/1+([X]/IC50)^h, (1) where I and IO are the currents in the presence and absence of inhibitor, respectively, [X] is the concentration of inhibitor, IC50 is the inhibitor concentration at which the inhibition is half maximal, h is the Hill coefficient, and a is the fraction of unblockable current; a = 0, except where indicated in the legend to Fig. 1.
The macroscopic concentration–activation relationships in Fig. 1 E were fitted with a modified Hill equation: I/I0=a+(1−a)([X]/IC50)^h/1+([X]/IC50)^h, (2) where I and IO are the currents in the presence and absence of agonist, respectively, [X] is the concentration of agonist, IC50 is the agonist concentration at which the activation is half maximal, h is the Hill coefficient, and a is the fraction of initial current.

[1] = +40 mV, in the presence of 80 µM TPA

h (Hill coefficient), NFx inhibition (0 mV, Fig. S4): 0.72
h (Hill coefficient), NFx inhibition (+40 mV, Fig. S4): 0.74
h (Hill coefficient), NFx inhibition (+40 mV, NFx on its own, Fig. 1E): 1.0
a (fraction of unblockable current) [1]: 0.05
h (Hill coefficient), NFx inhibition [1]: 1.2
h (Hill coefficient), NFx inhibition (+40 mV, in the presence of 100 mM TEA): 0.8
h (Hill coefficient), NFx inhibition (+80 mV, Fig. S4): 0.79
IC50 (IC50, NFx inhibition of TREK-2 currents, +40 mV, NFx on its own, Fig. 1E): 2700 nM
IC50 (IC50, NFx inhibition of macroscopic WT TREK-2 currents, 0 mV, Fig. S4): 4200 nM
IC50 (IC50, NFx inhibition of macroscopic WT TREK-2 currents, +40 mV, Fig. S4): 2000 nM
IC50 (IC50, NFx inhibition of macroscopic WT TREK-2 currents, +80 mV, Fig. S4): 1400 nM
h (Hill coefficient), NFx inhibition (NFx on its own, Fig. 2C): 1.7
IC50 (giant inside-out patches, physiological pH 7.4, NFx alone, read-out: IC50 for channel inhibition): ~3000 nM
h (Hill coefficient), NFx inhibition (in the presence of 50 µM ML335): 0.8
h (Hill coefficient), NFx inhibition (in the presence of 1 mM 2-APB): 0.6
Compound: NCCC(Oc1ccc(C(F)(F)F)cc1)c1ccccc1 (stereo not drawn) [NFx, norfluoxetine]

Reference: PMC8155809 (The Journal of General Physiology, 2021)
